From patent US11826351B2, “Compounds useful as kinase inhibitors” (Loxo Oncology, Inc., priority 2015, dated 2023)

Tests used:
[1] = target: T1, Recombinant BTK^WT kinase (Homo sapiens, UniProt Q06187); experiment: BTK WT binding affinity (LanthaScreen TR-FRET); settings: Kinase Tracer 236, 5 h incubation
T1 construct: purchased Invitrogen
How it was run: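 IC50 obtained by variable-slope fit of TR-FRET signal (ex 340 nm; em 615 and 665 nm) versus inhibitor concentration. Reaction held for 5 h in LanthaScreen Kinase Buffer A with 2.5 nM His-tagged BTK^WT, 15 nM Kinase Tracer 236 and 2 nM Eu anti-His antibody.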

[2] = test system: OCI-Ly10 human DLBCL cells; experiment: OCI-Ly10 anti-proliferative activity (Resazurin); type: cell-based; settings: Homo sapiens, OCI-Ly10, 72 h, OCI-Ly10 cells, 72 h compound treatment, Resazurin; read-out: Proliferation Assay OCI-Ly10-20% FBS
How it was run: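 A separate untreated plate gave the Day 0 reading, measured by Resazurin fluorescence at 590 nm after 5 h. The average Day 0 value was subtracted from each treated well, and results were expressed as percent of DMSO control. IC50 values came from a log[Inhibitor] vs response Variable Slope fit in Graphpad prism.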

[3] = target: T2, Recombinant BTK^C481S kinase (Homo sapiens, UniProt Q06187, C481S); experiment: BTK C481S binding affinity (LanthaScreen TR-FRET); settings: Kinase Tracer 236, 5 h incubation
T2 construct: purchased SignalChem
How it was run: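 BTK C481S tracer-displacement TR-FRET: 5 nM His-tagged kinase, 2 nM Eu anti-His antibody and 30 nM Kinase Tracer 236 incubated with titrated inhibitor for 5 h in Kinase Buffer A. Read at 340 nm excitation, 615/665 nm emission; IC50 from variable-slope log[inhibitor]–response fit.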

Recombinant EGFR = target: T3, Recombinant EGFR (Homo sapiens, UniProt P00533); experiment: EGFR binding affinity (LanthaScreen TR-FRET); settings: Kinase Tracer 199, 5 h incubation
T3 construct: purchased Invitrogen
How it was run: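 Compounds were titrated against recombinant EGFR and binding was followed by LanthaScreen time-resolved FRET.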

T3 sequence (P00533 25-1210): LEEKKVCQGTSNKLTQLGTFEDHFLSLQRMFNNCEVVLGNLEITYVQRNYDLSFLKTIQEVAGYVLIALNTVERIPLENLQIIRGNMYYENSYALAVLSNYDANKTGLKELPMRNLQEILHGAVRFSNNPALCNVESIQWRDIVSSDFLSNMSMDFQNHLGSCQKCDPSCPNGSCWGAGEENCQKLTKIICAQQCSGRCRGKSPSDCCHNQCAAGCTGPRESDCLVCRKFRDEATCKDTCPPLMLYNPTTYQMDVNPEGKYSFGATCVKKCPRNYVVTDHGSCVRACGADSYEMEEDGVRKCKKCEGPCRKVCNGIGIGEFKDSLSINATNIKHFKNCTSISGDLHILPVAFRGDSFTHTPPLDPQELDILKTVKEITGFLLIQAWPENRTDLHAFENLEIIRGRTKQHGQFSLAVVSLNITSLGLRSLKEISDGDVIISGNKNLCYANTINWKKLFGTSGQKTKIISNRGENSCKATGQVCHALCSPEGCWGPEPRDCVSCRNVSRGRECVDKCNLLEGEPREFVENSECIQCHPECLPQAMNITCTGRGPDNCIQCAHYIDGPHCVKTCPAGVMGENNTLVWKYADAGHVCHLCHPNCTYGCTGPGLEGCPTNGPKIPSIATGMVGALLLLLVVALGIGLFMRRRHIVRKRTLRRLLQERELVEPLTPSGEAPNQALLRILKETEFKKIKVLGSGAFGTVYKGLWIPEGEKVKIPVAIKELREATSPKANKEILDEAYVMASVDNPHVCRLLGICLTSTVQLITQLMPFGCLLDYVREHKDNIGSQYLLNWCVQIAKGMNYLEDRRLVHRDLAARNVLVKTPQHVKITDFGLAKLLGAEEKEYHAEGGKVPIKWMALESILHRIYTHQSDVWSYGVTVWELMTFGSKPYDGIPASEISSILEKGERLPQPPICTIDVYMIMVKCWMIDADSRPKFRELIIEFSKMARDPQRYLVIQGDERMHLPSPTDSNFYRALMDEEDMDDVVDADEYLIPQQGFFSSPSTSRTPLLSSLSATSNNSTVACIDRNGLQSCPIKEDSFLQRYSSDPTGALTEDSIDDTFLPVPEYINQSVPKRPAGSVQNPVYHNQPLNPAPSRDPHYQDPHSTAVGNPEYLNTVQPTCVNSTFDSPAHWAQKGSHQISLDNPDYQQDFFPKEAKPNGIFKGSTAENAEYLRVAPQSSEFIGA
T1 sequence (Q06187 whole entry): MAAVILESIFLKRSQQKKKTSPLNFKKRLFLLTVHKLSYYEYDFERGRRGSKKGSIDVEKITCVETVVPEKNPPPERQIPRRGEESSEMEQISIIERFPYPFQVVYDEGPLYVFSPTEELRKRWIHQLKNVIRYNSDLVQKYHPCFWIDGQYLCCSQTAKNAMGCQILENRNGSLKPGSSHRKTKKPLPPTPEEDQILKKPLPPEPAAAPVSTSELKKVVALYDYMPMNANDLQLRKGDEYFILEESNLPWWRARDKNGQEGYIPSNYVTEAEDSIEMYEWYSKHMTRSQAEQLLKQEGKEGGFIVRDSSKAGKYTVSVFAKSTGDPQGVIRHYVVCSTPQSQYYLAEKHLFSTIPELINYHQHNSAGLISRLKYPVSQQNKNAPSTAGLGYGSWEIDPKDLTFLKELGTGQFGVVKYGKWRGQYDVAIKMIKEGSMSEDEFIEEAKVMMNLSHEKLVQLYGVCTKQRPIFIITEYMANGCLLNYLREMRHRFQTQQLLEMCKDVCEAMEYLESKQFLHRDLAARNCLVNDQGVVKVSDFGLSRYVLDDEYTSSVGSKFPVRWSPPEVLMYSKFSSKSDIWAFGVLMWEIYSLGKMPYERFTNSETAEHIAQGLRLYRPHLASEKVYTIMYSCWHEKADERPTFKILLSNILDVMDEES
T2 sequence (Q06187 whole entry C481S): as the sequence (Q06187 whole entry) above, with C481S counted along it

Structure (SMILES) | IC50 [1] [nM] | IC50 [2] [nM] | IC50 [3] [nM] | IC50 (Recombinant EGFR) [nM]
COc1ccc(F)cc1C(=O)NCc1ccc(-c2nn(C(C3CCCC3)C(F)(F)F)c(N)c2C(N)=O)cc1 (centres unmarked) [Example 196, 5-Amino-1-(1-cyclopentyl-2,2,2-trifluoro-ethyl)-3-[4-[[(5-fluoro-2-methoxy-benzoyl)amino]methyl]phenyl]pyrazole-4-carboxamide] | 10 to 100 | 100 to 1000 | 10 to 100 | 1000 to 10000
COc1ccc(F)cc1C(=O)NCc1ccc(-c2nn(C3CN(C(C)C)CC3(F)F)c(N)c2C(N)=O)cc1 (centres unmarked) [Example 197, 5-amino-1-(4,4-difluoro-1-isopropyl-pyrrolidin-3-yl)-3-[4-[[(5-fluoro-2-methoxy-benzoyl)amino]methyl]phenyl]pyrazole-4-carboxamide] | < 10 | 10 to 100 | < 10 | 1000 to 10000
CCN1CC(n2nc(-c3ccc(CNC(=O)c4cc(F)ccc4OC)cc3)c(C(N)=O)c2N)C(F)(F)C1 (centres unmarked) [Example 198, 5-Amino-1-(1-ethyl-4,4-difluoro-pyrrolidin-3-yl)-3-[4-[[(5-fluoro-2-methoxy-benzoyl)amino]methyl]phenyl]pyrazole-4-carboxamide] | < 10 | 10 to 100 | < 10 | 1000 to 10000
COc1ccc(F)cc1C(=O)NCc1ccc(-c2nn(C3CN(C)CC3(F)F)c(N)c2C(N)=O)cc1 (centres unmarked) [Example 199, 5-amino-1-(4,4-difluoro-1-methyl-pyrrolidin-3-yl)-3-[4-[[(5-fluoro-2-methoxy-benzoyl)amino]methyl]phenyl]pyrazole-4-carboxamide] | < 10 | 10 to 100 | < 10 | 1000 to 10000
COc1ccc(F)cc1C(=O)NCc1ccc(-c2nn(C3COCC3(F)F)c(N)c2C(N)=O)cc1 (centres unmarked) [Example 200, 5-amino-1-(4,4-difluorotetrahydrofuran-3-yl)-3-[4-[[(5-fluoro-2-methoxy-benzoyl)amino]methyl]phenyl]pyrazole-4-carboxamide] | < 10 | 10 to 100 | < 10 | 1000 to 10000
